According to patent publication US9234902B2, “Method for monitoring anticoagulant therapy” (priority 2011, dated 2016):

How the values were obtained:
FII, FVII and FX = assay: Sequential PT-INR (PP-INR) measurements over 49 days in a single patient starting on warfarin; format: in vivo, human; settings: FIG. 6, grey zone
Procedure: Both the Quick prothrombin time (PT) and the Owren's prothrombin time (prothrombin proconverting time, P&P test) were measured on patient samples. The STA-R coagulation analyzer was used (Diagnostika Stago, Asnieres, France). The PT was done using the STA-Néoplastine® CI plus as coagulation reagent, with and ISI value of 1.3 and the P&P was done using the STA-SPA 50 reagent with ISI of 1.01 (both from Diagnostika Stago). The P&P reagent is similar to the PT reagent but also consists of added absorbed bovine plasma as a source of coagulation factor V and fibrinogen and, thus, is only sensitive to the activity of FII, FVII and FX. The P&P percentages were calculated from a standard curve based on serially diluted pooled plasma in Owren's buffer. The INR is calculate as described above.
In FIG. 6 we show sequential measurements of Fiix-INR, PP-INR, FII, FVII and FX over 49 days in a single patient starting on warfarin. The amount of coagulation factors (percentage) is shown on the left Y-axis and the INR value on the right Y-axis. The change in INR in relation to changes in concentrations of the VKD factors can be derived from the graph. […]

FII and FX = assay: Sequential Fiix-INR (Fiix-PT) measurements over 49 days in a single patient starting on warfarin; format: in vivo, human; settings: FIG. 6
Text: The test results may be obtained as clotting time, clotting time ratio or any other endpoint measuring thrombin generation or fibrin formation. […] Since this is a variant of the prothrombin time we call it “Fiix-prothrombin time” or Fiix-PT.
In our new method, which we call Fiix-method, a test plasma sample (patient plasma) is mixed with normal plasma that has been immunodepleted of both FII and FX (Fiix-deficient plasma). Using such mixture, by adding thromboplastin and calcium, a prothrombin time variant can be measured that is only sensitive to FII and FX, ie Fiix-PT. In the Fiix-PT the proportions of test plasma to Fiix-deficient plasma can be in the range from 1:1 to 1:20 parts, preferably in the range from 1:2 to 1:10 (see below).
Based on the experiments shown in FIG. 4 we decided to measure the Fiix-PT by mixing […] of a 1:7 dilution of test plasma with 25 uL of Fiix-deficient plasma (i.e. final proportion 1 part test plasma to 2.2 parts Fiix-deficient plasma). We then measured “Fiix-PT” in samples from 38 patients on stable warfarin therapy and calculated the international normalized ratio (“Fiix-INR”). […] Corresponding results were found when Fiix-INR was correlated with Quick PT based INR(PT-INR, data not shown).
In FIG. 6 we show sequential measurements of Fiix-INR, PP-INR, FII, FVII and FX over 49 days in a single patient starting on warfarin. […]

CC(=O)CC(c1ccccc1)c1c(O)c2ccccc2oc1=O (centres unmarked) [warfarin]
day on which the patient has reached an acceptable anticoagulated range by PT-INR (FII, FVII and FX): 3 days
day on which the patient reaches an acceptable INR value (acceptable anticoagulation) by Fiix-INR (FII and FX): 5 days
